According to publication PMC10384562, “Synthesis and Structure Determination of Substituted Thiazole Derivatives as EGFR/BRAF^V600E Dual Inhibitors Endowed with Antiproliferative Activity” (Pharmaceuticals, 2023):
Like-named read-outs stand apart in the source and are kept apart here.

Experiments:
[1] = system: four human cancer cell lines (A-549, MCF-7, Panc-1, HT-29); assay: Antiproliferative assay, average over four cancer cell lines (GI50); format: cell-based; conditions: for IC50: average IC50 (GI50) over A-549, MCF-7, Panc-1, HT-29
Experimental: (§1) 4.2.1.2. Assay for antiproliferative effect
To explore the antiproliferative potential of compounds propidium iodide fluorescence assay was performed using different cell lines such as Panc-1 (pancreas cancer cell […]
(§2) (epithelial cancer cell line), respectively. To calculate the total nuclear DNA, a fluorescent dye (propidium iodide, PI) is used which can attach to the DNA, thus offering a quick and precise technique. PI cannot pass through the cell membrane and its signal intensity can be considered as directly proportional to quantity of cellular
DNA. Cells whose cell membranes are damaged or have changed permeability are counted as dead ones. The assay was performed by seeding the cells of different cell lines at a density of 3000-7500 cells/well (in200μl medium) in culture plates followed […]
(§3) The medium was removed; the compounds were added to the plates at 10 μM concentrations (in 0.1% DMSO) in triplicates, followed by incubation for 48h. DMSO (0.1%) was used as control. After incubation, medium was removed followed by the addition of PI (25 μl, 50μg/mL in water/medium) to each well of the plates. At -80 °C, the plates were allowed to freeze for 24 h, followed by thawing at 25 °C. A fluorometer (Polar-Star BMG Tech) was used to record the readings at excitation and emission wavelengths of 530 and 620 nm for each well. The percentage cytotoxicity of compounds was calculated using the following formula:
Where ATC= Absorbance of treated cells and AC= Absorbance of control. […]
was used as positive control in the assay.
(§4) (1 picture or pasted object on this page, not shown here)

[2] = system: pancreatic cancer (Panc-1) cell line; assay: Antiproliferative assay, Panc-1; format: cell-based; conditions: Homo sapiens; Panc-1 pancreatic cancer cells; read-out: Antiproliferative Activity IC50 ± SEM, Panc-1
Experimental: as §1
as §2, with “To explore the antiproliferative potential of compounds propidium iodide fluorescence assay was performed using different cell lines such as Panc-1 (pancreas cancer cell line), MCF-7 (breast cancer cell line), HT-29 (colon cancer cell line) and A-549 (epithelial” for “(epithelial”
(§5) DNA. Cells whose cell membranes are damaged or have changed permeability are counted as dead ones. The assay was performed by seeding the cells of different cell lines at a density of 3000-7500 cells/well (in200μl medium) in culture plates followed by incubation for 24h at 37 °C in humidified 5%CO2/95% air atmospheric conditions.
as §3
(§6) Where ATC= Absorbance of treated cells and AC= Absorbance of control. Erlotinib was used as positive control in the assay.

[3] = system: breast cancer (MCF-7) cell line; assay: Antiproliferative assay, MCF-7; format: cell-based; conditions: Homo sapiens, MCF7; MCF-7 breast cancer cells; read-out: Antiproliferative Activity IC50 ± SEM, MCF-7
Experimental: as §1
as §2, with “To explore the antiproliferative potential of compounds propidium iodide fluorescence assay was performed using different cell lines such as Panc-1 (pancreas cancer cell line), MCF-7 (breast cancer cell line), HT-29 (colon cancer cell line) and A-549 (epithelial” for “(epithelial”
as §5, §3, §6

[4] = Cell viability assay (MTT) on normal mammary epithelial cells; conditions: human, MCF-10A mammary gland epithelial cells
[5] = system: colon cancer (HT-29) cell line; assay: Antiproliferative assay, HT-29; format: cell-based; conditions: Homo sapiens; HT-29 colon cancer cells; read-out: Antiproliferative Activity IC50 ± SEM, HT-29
Experimental: as §1
as §2, with “To explore the antiproliferative potential of compounds propidium iodide fluorescence assay was performed using different cell lines such as Panc-1 (pancreas cancer cell line), MCF-7 (breast cancer cell line), HT-29 (colon cancer cell line) and A-549 (epithelial” for “(epithelial”
as §5, §3, §6

[6] = system: lung cancer (A-549) cell line; assay: Antiproliferative assay, A-549; format: cell-based; conditions: Homo sapiens, A549; A-549 lung cancer cells; read-out: Antiproliferative Activity IC50 ± SEM, A-549
Experimental: as §1
as §2, with “To explore the antiproliferative potential of compounds propidium iodide fluorescence assay was performed using different cell lines such as Panc-1 (pancreas cancer cell line), MCF-7 (breast cancer cell line), HT-29 (colon cancer cell line) and A-549 (epithelial” for “(epithelial”
as §5, §3, §6, §4

BRAF^V600E = biological target: T1, BRAF^V600E (Mus musculus, UniProt P28028, V585E); assay: BRAF^V600E inhibitory assay; format: biochemical; conditions: read-out: BRAF^V600E Inhibition IC50 ± SEM
T1 construct: Mouse full-length GST-tagged BRAFV600E (7.5 ng,; GST; purchased Invitrogen PV3849
Experimental: See Supplementary Information. […]
4.2.3. BRAFV600E inhibitory assay
V600E mutant BRAF kinase assay was performed to investigate the activity of tested compounds against BRAF. Mouse full-length GST-tagged BRAFV600E (7.5 ng, Invitrogen, PV3849) was pre-incubated with drug (1 µL) and assay dilution buffer (4 µL) for 60 min at 25 °C. In assay dilution buffer, a solution (5 µL) containing MgCl2 (30 mM), ATP (200 µM), recombinant human full length (200 ng) […] N-terminal His-tagged MEK1 (Invitrogen) was added to start the assay, subsequent to incubation for 25 min at 25 °C. The assay was stopped using 5X protein denaturing buffer (LDS) solution (5 µL). To further denature the protein, heat (70° C) was applied for 5 min. 4- […]
200 V). 10 µL of each reaction was loaded into the precast plates and electrophoresis was allowed to proceed. After completion of electrophoresis, the front part of the precast gel plate (holding hot ATP) was cut and afterwards cast-off. The dried gel was developed using a phosphor screen. A reaction without active enzyme was used as negative control while that containing no inhibitor served as positive control. […]
4.3. Statistical analysis
Computerized Prism 5 program was used to statistically analyzed data using one-way ANOVA test followed by Tukey’s as post ANOVA for multiple comparison at P ≤.05.
Data were presented as mean ± SEM.

EGFR [7] = biological target: T2, EGFR (Homo sapiens, UniProt P00533); assay: EGFR-TK inhibitory assay; format: biochemical; conditions: for IC50: read-out: EGFR Inhibition IC50 ± SEM; for fold less potent than erlotinib (EGFR IC50): ratio of EGFR IC50 to that of erlotinib
T2 construct: CD, amino acids 645–1186); His6 (N); made in house; host or cells: Sf-9 insect cells (baculovirus; pBlueBacHis2B / pFASTBacHTc
Experimental: 4.2.2. EGFR inhibitory assay
Baculoviral expression vectors including pBlueBacHis2B and pFASTBacHTc were […]
5ʹ upstream to the EGFR sequence comprised a sequence that encoded (His)6. Sf-9 cells were infected for 72h for protein expression. The pellets of Sf-9 cells were solubilized in a buffer containing sodium vanadate (100 μM), aprotinin (10 μg/mL), triton (1%), HEPES buffer(50mM), ammonium molybdate (10 μM), benzamidine HCl (16 μg/mL), NaCl (10 mM),leupeptin (10 μg/mL) and pepstatin (10 μg/mL) at 0°C for 20 min at pH 7.4, followed by centrifugation for 20 min. To eliminate the nonspecifically bound material, a Ni-NTA super flow packed column was used to pass through and wash the crude extract supernatant first with 10mM and then with 100 mM imidazole. Histidine-linked proteins were first eluted with 250 and then with 500 mM imidazole subsequent to dialysis against NaCl (50 mM), HEPES (20 mM), glycerol (10%) and 1 μg/mL each of aprotinin, leupeptin and pepstatin for 120 min. The purification was performed either at 4 °C or on ice. To record autophosphorylation level, EGFR kinase assay was carried out on the basis of DELFIA/Time-Resolved Fluorometry. The compounds were first dissolved in DMSO […]
pH 7.4. Each compound (10 μL) was incubated with recombinant enzyme (10 μL, 5 ng for EGFR, 1:80 dilution in 100 mM HEPES) for 10 min at 25 °C, subsequent to the addition of 5X buffer (10 μL, containing 2 mM MnCl2, 100 μM Na3VO4, 20 mM HEPES and 1 mM DTT) and ATP-MgCl2 (20 μL, containing 0.1 mM ATP and 50 mM MgCl2) and incubation for 1h. The negative and positive controls were included in each plate by the incubation of enzyme either with or without ATP-MgCl2. The liquid was removed after incubation and the plates were washed thrice using wash buffer.
Europium-tagged antiphosphotyrosine antibody (75 μL, 400 ng) was added to each well followed by incubation of 1h and then washing of the plates using buffer. The enhancement solution was added to each well and the signal was recorded at excitation […]
The autophosphorylation percentage inhibition by compounds was calculated using the following equation: […]

[8] = system: four evaluated cancer cell lines; set-up: method as in doi:10.1016/j.arabjc.2023.104612; conditions: ref [36]; read-out: GI50 against the four evaluated cancer cell lines; cited from earlier work
EGFR [9] = biological target: T2, EGFR; set-up: method as in doi:10.1016/j.arabjc.2023.104612; conditions: ref [36]; cited from earlier work
in vitro = conditions: human

T2 sequence (P00533 669-1210): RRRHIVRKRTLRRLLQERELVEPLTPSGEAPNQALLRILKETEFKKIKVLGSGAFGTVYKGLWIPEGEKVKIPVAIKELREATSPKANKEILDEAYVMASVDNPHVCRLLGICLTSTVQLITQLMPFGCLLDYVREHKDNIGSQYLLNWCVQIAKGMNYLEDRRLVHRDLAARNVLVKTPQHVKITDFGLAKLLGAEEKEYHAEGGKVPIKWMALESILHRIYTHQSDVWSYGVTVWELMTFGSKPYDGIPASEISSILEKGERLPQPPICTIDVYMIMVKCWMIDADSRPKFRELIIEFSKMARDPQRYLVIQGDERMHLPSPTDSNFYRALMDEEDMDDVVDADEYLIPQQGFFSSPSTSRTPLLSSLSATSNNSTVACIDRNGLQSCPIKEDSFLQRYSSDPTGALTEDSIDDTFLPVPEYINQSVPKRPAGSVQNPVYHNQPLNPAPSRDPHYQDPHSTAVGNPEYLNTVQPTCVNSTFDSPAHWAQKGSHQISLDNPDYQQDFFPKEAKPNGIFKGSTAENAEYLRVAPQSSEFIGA
T1 sequence (P28028 whole entry V585E): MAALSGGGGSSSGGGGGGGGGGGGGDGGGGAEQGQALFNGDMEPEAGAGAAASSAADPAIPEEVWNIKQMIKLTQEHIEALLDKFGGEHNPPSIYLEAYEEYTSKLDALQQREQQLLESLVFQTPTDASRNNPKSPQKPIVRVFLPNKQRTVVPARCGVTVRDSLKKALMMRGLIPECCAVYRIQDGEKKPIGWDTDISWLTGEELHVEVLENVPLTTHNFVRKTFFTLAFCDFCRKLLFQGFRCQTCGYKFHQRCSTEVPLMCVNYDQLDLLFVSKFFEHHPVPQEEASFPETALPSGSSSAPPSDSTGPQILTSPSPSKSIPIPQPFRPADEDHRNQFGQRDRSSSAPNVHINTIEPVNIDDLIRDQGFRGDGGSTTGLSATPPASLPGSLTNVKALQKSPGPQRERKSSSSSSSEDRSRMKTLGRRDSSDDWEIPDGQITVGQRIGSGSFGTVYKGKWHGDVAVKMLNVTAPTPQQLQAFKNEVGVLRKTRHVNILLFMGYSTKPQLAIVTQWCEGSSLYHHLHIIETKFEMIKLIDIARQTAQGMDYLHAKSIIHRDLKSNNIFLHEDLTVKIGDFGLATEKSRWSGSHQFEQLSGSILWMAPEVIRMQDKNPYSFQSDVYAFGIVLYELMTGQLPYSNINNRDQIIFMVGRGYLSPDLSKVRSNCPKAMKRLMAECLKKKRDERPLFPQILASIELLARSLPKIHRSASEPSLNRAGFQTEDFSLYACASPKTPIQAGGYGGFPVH

Row | melting point [°C] | SMILES | IC50 ([1]; Homo sapiens) [µM] | IC50 [2] [µM] | IC50 [3] [µM] | viability at 96 h, 50 µM [4] [%] | IC50 [5] [µM] | IC50 [6] [µM] | IC50 (BRAF^V600E) [µM] | IC50 [1] [µM] | IC50 (EGFR [7]) [µM] | GI50 [8] [µM] | IC50 (EGFR [9]) [µM] | viability at 96 h, 50 µM (in vitro) [%] | fold less potent than erlotinib (EGFR IC50) (EGFR [7]) [fold] | fold less potent than compound 3f (GI50) ([1]; ratio of GI50 to that of 3f) [fold]
1 | 236 to 238 | CCn1c(C)cs/c1=N\NS(=O)(=O)c1ccc(C)cc1 [Compound 3i, (Z)-N′-(3-Ethyl-4-Methylthiazol-2(3H)-Ylidene)-4-Methyl Benzenesulfonohydrazide] | 0.086 | 0.086 ± 0.008 | 0.089 ± 0.008 | 95 | 0.086 ± 0.008 | 0.084 ± 0.008 | – | – | – | – | – | – | – | –
2 | – | COc1cccc(-n2c(-c3ccccc3)cs/c2=N\c2c[nH]c(=O)[nH]c2=O)c1 [Compound V] | – | – | – | – | – | – | – | – | – | 0.9 | 0.074 ± 0.007 | – | – | –
3 | 193 to 194 | Cc1ccc(S(=O)(=O)N/N=c2\scc(C)n2-c2ccccc2)cc1 [Compound 3g, (Z)-4-Methyl-N′-(4-Methyl-3-Phenylthiazol-2(3H)-Ylidene) Benzenesulfonohydrazide] | 0.06 | 0.06 ± 0.006 | 0.063 ± 0.006 | 90 | 0.058 ± 0.005 | 0.058 ± 0.005 | – | – | – | – | – | – | – | –
4 | – | Cc1ccc(-n2c(C)cs/c2=N/Nc2ccc([N+](=O)[O-])cc2[N+](=O)[O-])cc1 [Compound 3f, (Z)-2-(2-(2,4-Dinitrophenyl)Hydrazineylidene)-4-Methyl-3-(p-Tolyl)-2,3-Dihydrothi-Azole] | 0.037 | 0.037 ± 0.003 | 0.04 ± 0.003 | – | 0.037 ± 0.003 | 0.035 ± 0.003 | 0.093 ± 0.008 | – | 0.089 ± 0.007 | – | – | 89 | 1.1 | –
5 | – | Cc1cs/c(=N/Nc2ccc([N+](=O)[O-])cc2[N+](=O)[O-])n1C1CCCCC1 [Compound 3d, (Z)-3-Cyclohexyl-2-(2-(2,4-Dinitrophenyl)Hydrazineylidene)-4-Methyl-2,3-Dihydrothi-Azole] | 0.046 | 0.046 ± 0.004 | 0.047 ± 0.004 | 92 | 0.046 ± 0.004 | 0.043 ± 0.004 | 0.112 ± 0.01 | – | 0.091 ± 0.007 | – | – | – | 1.15 | 1.3

Row | SMILES | melting point [°C] | IC50 ([1]; Homo sapiens) [µM] | IC50 [2] [µM] | IC50 [3] [µM] | viability at 96 h, 50 µM [4] [%] | IC50 [5] [µM] | IC50 [6] [µM] | IC50 (BRAF^V600E) [µM] | IC50 [1] [µM] | IC50 (EGFR [7]) [µM] | GI50 [8] [µM] | IC50 (EGFR [9]) [µM] | viability at 96 h, 50 µM (in vitro) [%] | fold less potent than erlotinib (EGFR IC50) (EGFR [7]) [fold] | fold less potent than compound 3f (GI50) ([1]; ratio of GI50 to that of 3f) [fold]
6 | C=CCn1c(C)cs/c1=N\Nc1ccc([N+](=O)[O-])cc1[N+](=O)[O-] [Compound 3c, (Z)-3-Allyl-2-(2-(2,4-Dinitrophenyl)Hydrazineylidene)-4-Methyl-2,3-Dihydrothiazole] | 197 to 198 | > 0.05 | 0.054 ± 0.005 | 0.056 ± 0.005 | 90 | 0.054 ± 0.005 | 0.05 ± 0.005 | 0.126 ± 0.011 | 0.054 | 0.098 ± 0.009 | – | – | – | – | –
